Laboratory results as given in PMC12400309 (RSC Advances, 2025).

Experiments:
[1] = tested on: human leukemia MOLT-4 cell line; details: cited from earlier work
[2] = tested on: human oral squamous cell carcinoma (SCC2095); test: MTT cytotoxicity assay, SCC2095; type: cell-based; details: read-out: IC50 SCC2095
[3] = tested on: human breast adenocarcinoma (MCF-7); test: MTT cytotoxicity assay, MCF-7; type: cell-based; details: MCF7, read-out: IC50 MCF-7
[4] = tested on: human gastric adenocarcinoma (SCM-1); test: MTT cytotoxicity assay, SCM-1; type: cell-based; details: read-out: IC50 SCM-1
[5] = tested on: colchicine resistant KB-C2 cell lines; details: cited from earlier work

Compound	IC50 [2] [µM]	IC50 [4] [µM]	further results
COC(C)(C)[C@@H](O)[C@H](O)C[C@H](C)[C@@H]1CC[C@]23C[C@]12CC[C@@H]1[C@@]2(C)CC[C@@H](OC(C)=O)C(C)(C)[C@@H]2C[C@@H](O[C@@H]2O[C@H](COC(C)=O)[C@@H](O)[C@H](O)[C@H]2O)[C@]13C [cumingianoside C]	–	–	ED50 cytotoxicity MOLT-4 [1]: < 4.5 ng/mL
COc1cc(C=O)cc(OC)c1O [Compound 14, 4-hydroxy-3,5-dimethoxybenzaldehyde]	> 10	> 10	IC50 [3]: > 10 µM
cumingianol B	–	–	cytotoxicity against multi-drug resistant KB-C2 cancer cells (in words) [5]: enhanced cytotoxicity
CC(=O)OC[C@H]1O[C@@H](O[C@@H]2C[C@H]3C(C)(C)[C@H](OC(C)=O)CC[C@]3(C)[C@H]3CC[C@]45C[C@]4(CC[C@H]5[C@@H](C)C[C@@H](O)[C@H](O)C(C)(C)O)[C@@]32C)[C@H](O)[C@@H](O)[C@@H]1O [cumingianoside A]	–	–	ED50 cytotoxicity MOLT-4 [1]: < 6.25 ng/mL
COc1cc([C@@H]2c3cc4c(cc3[C@@H](O[C@@H]3O[C@@H]5CO[C@@H](C)O[C@H]5[C@H](O)[C@H]3O)[C@H]3COC(=O)[C@H]23)OCO4)cc(OC)c1O [Etoposide]	2.5 ± 0.2	–	–
CC[C@H](CC[C@@H](C)[C@H]1CC[C@H]2[C@@H]3[C@H](O)C=C4C[C@@H](O)CC[C@]4(C)[C@H]3CC[C@]12C)C(C)C [Compound 8, (3β,7α)-stigmast-5-ene-3,7-diol]	> 30	> 30	IC50 [3]: > 30 µM
dycusin A	–	–	cytotoxicity against multi-drug resistant KB-C2 cancer cells (in words) [5]: enhanced cytotoxicity
CC(=O)O[C@H]1C(=O)[C@@]2(C)[C@H]([C@H](OC(=O)c3ccccc3)[C@]3(O)C[C@H](OC(=O)[C@H](O)[C@@H](NC(=O)c4ccccc4)c4ccccc4)C(C)=C1C3(C)C)[C@]1(OC(C)=O)CO[C@@H]1C[C@@H]2O [Paclitaxel]	–	0.07 ± 0.002	–
